Each block holds one substance with its values, some of them ahead of it.
What was measured:
[1] = known in the art; cited from earlier work
skin = assay: Surfactant skin penetration at 5 depths after forearm controlled application technique (FCAT), liquid chromatography and mass spectrometry; assay type: in vivo
Text: One way to test the potential mildness of a surfactant is by looking at how it interacts with the skin. One type of interaction with the skin is skin penetration. Skin penetration looks at how much of the surfactant will penetrate into the skin. It is believed that the more the surfactant penetrates into the skin, the less mild the composition. Originally, this was believed to be largely driven by the structure of the surfactant, itself. Now, it is believed that the phase behavior associated with the surfactant can also have an impact on the penetration of the surfactant, and thus, its mildness. One surfactant reviewed for mildness is sodium trideceth-2 sulfate. […] In FIG. 1, the lighter gray (left hand column) is sodium trideceth-2 sulfate deposited on skin in a vesicle form, specifically a lamellar form as part of Composition F (below), while the darker gray (right hand column) is sodium trideceth-2 sulfate deposited in a micellar form as part of Composition E (below). The compositions were applied in accordance with a forearm controlled application technique (FCAT), a description of which is found in Ertel et al., “A forearm controlled application technique for estimating the relative mildness of personal cleansing products,” J. Soc. Cosmet. […] The levels of the target materials on the skin are then measured with a combination of liquid chromatography and mass spectrometry.

Substance: cocamide monoethanolamine
HLB value [1]: 16.8

penetration of the surfactant into skin (concentration at depth 01 to depth 05) (skin; in vivo): A similar result was seen
Substance: cocamidopropyl betaine

Substance: sodium trideceth-2 sulfate
penetration of the surfactant into skin (concentration at depth 01 to depth 05) (skin; deposited from micellar composition (Composition E) versus lamellar composition (Composition F), FCAT, FIGS. 1-3): penetrates the skin at a greater concentration at all 5 depths measured

— patent publication US10942107B2, “Methods of screening for mild skin cleanser” (The Procter & Gamble Company, priority 2017, dated 2021)
